Data taken from patent US5912258A, “Thiadiazoleamide derivative and anti-ulcer drug” (Shiseido Co., Ltd., priority 1998, dated 1999).

Experiments:
[1] = test system: gastric corpus mucosa cells; experiment: MTT: Cell Damaging and Protecting Effect Test; type: cell-based, male Japanese White rabbit; conditions: rabbit gastric mucosa cells, 10^-4 M, 4 hours; smaller value is better; 100 µM
Source text: MTT: Cell Damaging and Protecting Effect Test
It is confirmed that there is no toxicity in cell level. Those having toxicity in cell level are inappropriate as an anti-ulcer drug.
A male Japanese White rabbit (2.5 to 3 kg) was anesthetized to death by Nembutal™ and, immediately thereafter, its stomach was removed. The greater curvature of the stomach was incised so as to remove the stomach contents therefrom. After the mucosal surface was washed with HBSS (Hank's Balanced Salt Solution), the stomach in ice-cooled HBSS was transferred to a laboratory. Then, after the pyloric antrum was removed, the gastric corpus mucosa was separated by a spatula and then minced into 2 to 3 mm pieces in BME (Basal Medium Eagle). Thereafter, these pieces were shaken at 120 to 130 cycles/minute for 15 minutes at 37° C. in BME 60 ml containing 280 U/ml of dispase and 30 to 50 U/mil of collagenase. Here, the concentration of collagenase was appropriately changed for each lot in view of the state of cells. The pieces were washed twice with EBSS (Earle's Balanced Salt Solution) containing 1 mM of EDTA and then shaken in MEM (Minimum Essential Medium) containing 1 mM of EDTA at 37° C. for 5 minutes. Subsequently, they were shaken in the dispase and collagenase having the same concentrations as those mentioned above for 15 minutes so as to remove the supernatant and then further shaken at 37° C. for 50 to 60 minutes at 120 to 130 cycles/minute. Then, after being washed twice with HBSS, Ham F12 containing 2% of Ultrocer G™ was used to attain the concentration of 1×10^6 cells/ml. Thus formed suspension was dispensed in each well of a 96-well plate by 200 μl. The plate was incubated in the atmosphere composed of 5% CO2 and 95% air at 37° C. for three days so as to attain a confluent state and then subjected to MTT assay.
The sample compound was dissolved in DMSO so as to attain a concentration of 10^-2 M and then diluted with HBSS containing 2% of Ultrocer G™ so as to attain a final concentration of 10^-4 M. To each group, which 8 wells were used for, 10 μl of MTT reagent was added immediately after 100 μl of the medium in each well was exchanged for same volume of the resulting solution of the sample compound. After being incubated in an atmosphere composed of 5% CO2 and 95% air at 37° C. for 4 hours, thus formed solution was centrifuged and then its supernatant was discarded. Subsequently, 100 μl of 100% ethanol was added to the residue so as to dissolve MTT formazan. Then, the absorbance (OD: 570 to 630) was measured by a microplate reader. This method utilizes a phenomenon in which MTT is changed to MTT formazan only by mitochondria of living cells so as to change color.
The cell damaging or cell protecting effect of the sample compound at the final concentration of 10^-4 M was expressed as cell damaging rate (%) as follows:
cell damaging rate (%)={1-(absorbance in sample group/absorbance in control group)}×100
Accordingly, the smaller value is better in the cell damaging rate.

[2] = test system: histamine-stimulated gastric acid secretion (pylorus-ligated rats); experiment: VOL, TAO: Acid Secretion Inhibition Test in vivo; set-up: species or system Male Crj:Donryu rats; conditions: rat, 100 mg/kg orally, histamine 30 mg/kg s.c.
Protocol: VOL, TAO: Acid Secretion Inhibition Test in vivo
Inhibitory effect on acid secretion in vivo is confirmed.
Male Crj:Donryu rats (7-week-old) were fasted overnight but allowed free access to water. In each group, 8 to 10 of these rats were used under urethane anesthesia (1.25 g/kg). The sample compound dissolved or suspended in an aqueous solution of 0.5% sodium carboxymethylcellulose or 0.05% Tween 80 was orally administered (100 mg/10 ml/kg). 30 minutes later, the abdomen of each was incised and the pylorus was ligated. 30 minutes after the ligation, 30 mg/kg of histamine dissolved in physiological saline was subcutaneously administered and, 3 hours thereafter, the rat was sacrificed with carbon dioxide. Immediately thereafter, each stomach was removed and the gastric contents were collected and each volume was determined. The total acid output was determined by titration of the gastric juice with 0.1N NaOH.
With respect to the gastric juice volume (VOL) and the total acid output (TAO), the effects obtained when 100 mg/kg of the sample compound had been administered were expressed as their respective inhibitory rates (%) as follows:
each inhibitory rate (%) {1-(value in sample group/value in control group)}×100

SMILES	MTT: cell damaging rate [1] [%]	TAO: total acid output inhibitory rate [2] [%]	VOL: gastric juice volume inhibitory rate [2] [%]
CC(C)c1ccc(C(=O)Nc2nnc(SCCN(C(C)C)C(C)C)s2)cc1 [Example 2, 2-(4-isopropylbenzoyl)amino-5-diisopropylaminoethylthio-1,3,4-thiadiazole]	-77		
CCN(CC)CCSc1nnc(NC(=O)c2ccc(OC/C=C(\C)CCC=C(C)C)cc2)s1 [Example 10, 2-(4-geranyloxybenzoyl)amino-5-diethylaminoethylthio-1,3,4-thiadiazole]		44	36
CCSc1nnc(NC(=O)c2ccc(OC/C=C(\C)CCC=C(C)C)cc2)s1 [Example 15, 2-(4-geranyloxybenzoyl)amino-5-ethylthio-1,3,4-thiadiazole]		19	10
